Assays:
Assay type in all cases: cell-based
[1] = tested on: HBeAg; assay: PHH HBV natural infection assay, HBeAg (alphalisa); conditions: Hepatitis B virus, Hepatocyte, read-out: HBeAg IC50
Description: (§1) Detailed procedures regarding primary human hepatocyte (PHH) HBV natural infection assay are described as below. One tube of frozen PHH (10 million cells) is thawed in 37° C. water bath and then transferred to 20 mL of PHH thawing medium (Sigma, InVitroGRO HT Medium, Cat. S03319) with gently mixing. The cells were then centrifuged at […] for 5 min, the supernatant was discarded and the tube was refilled with 25 mL of PHH plating medium (Sigma, InVitroGRO CP Medium, Cat. S03317). The tube was shaken very gently to re-suspend all cells, and then 50 μL of cells were transferred to each well 384-well collagen I coated plate with appropriate liquid handling equipment, e.g. Integra VIAFLO384 or Agilent Bravo. The cells were then cultured for 24 hours in a cell incubator. For HBV infection, after PHH attachment on the culture plate, the plating medium was removed and replenished with PHH culture medium containing HBV virus. The PHH culture medium was prepared with Dulbecco's Modified Eagle Medium (DMEM)/F12 (1:1 in volume ratio) containing 10% fetal bovine serum (Gibco, Cat. 10099141), 5 ng/mL human epidermal growth factor (Gibco, Cat. PHG0311L), 20 ng/mL dexamethasone (Sigma, Cat. D4902-100 mg), 250 ng/mL human recombinant insulin (Gibco, Cat. 41400045) and 100 U/mL penicillin. HBV virus at 200 genome equivalent (GE) per cell with 4% PEG8000 (Sigma, Cat. P1458) containing culture medium were added to the PHH culture medium for infection. The cells were then cultured for 24 hours in cell incubator. Then the cell culture supernatant was removed. The HBV-infected PHH were cultured with sandwich culture method with MEI culture medium containing 1% DMSO and 0.25 mg/mL matrix gel for 72 hours. The supernatant was then refreshed with PHH culture medium containing different concentrations of testing compounds for two times with 72-hour interval. At the end of treatment, the supernatant was collected for viral markers measurements, including HBsAg, HBeAg, HBV DNA and cytotoxicity. HBsAg and HBeAg were detected using alphalisa method using their specific antibodies. For HBV DNA detection, HBV DNA Quantitative Fluorescence Diagnostic Kit (Sansure Biotech Inc.) was used following the manufacture's protocol. Cytotoxicity was determined using Cell Counting Kit-8 (CCK8, Dojindo Molecular Technologies, Inc.).
(§2) The compounds of the present invention were tested for their capacity to inhibit HBsAg and HBeAg as described herein.

[2] = tested on: HBsAg; assay: PHH HBV natural infection assay, HBsAg (alphalisa); conditions: Hepatitis B virus, Hepatocyte, read-out: HBsAg IC50
Description: as §1, §2

[3] = Cytotoxicity in PHH natural infection assay (Cell Counting Kit-8); conditions: HBV-infected primary human hepatocytes, CCK8
Description: as §1

SMILES | IC50 [1] [µM] | IC50 [2] [µM] | CC50 at 144 h [3] [µM]
O=C(NC1CCC2(CC1)CCN(c1nc3ccccc3o1)CC2)c1ccnc(S(=O)(=O)C2CC2)c1 [Example 110, N-[3-(1,3-benzoxazol-2-yl)-3-azaspiro[5.5]undecan-9-yl]-2-cyclopropylsulfonyl-pyridine-4-carboxamide] | 5.58 | 5.84 | > 10
O=C(NC1CC2(C1)CN(c1nc3cc(Cl)ccc3o1)C2)C1CC(F)(F)C1 [Example 31, N-[2-(5-chloro-1,3-benzoxazol-2-yl)-2-azaspiro[3.3]heptan-6-yl]-3,3-difluoro-cyclobutanecarboxamide] | 6.22 | 6.98 | > 100
CS(=O)(=O)N1CC(CC(=O)NCC2CCN(c3nc4cc(Cl)ccc4o3)CC2)C1 [Example 17, N-[[1-(5-chloro-1,3-benzoxazol-2-yl)-4-piperidyl]methyl]-2-(1-methylsulfonylazetidin-3-yl)acetamide] | > 10 | 8.23 | > 10
O=C(NC1CCC2(CC1)CCN(c1nc3ccc(Cl)cc3o1)CC2)C1CS(=O)(=O)C1 [Example 89, N-[3-(6-chloro-1,3-benzoxazol-2-yl)-3-azaspiro[5.5]undecan-9-yl]-1,1-dioxo-thietane-3-carboxamide] | 3.93 | 6.76 | 88.1
Cc1ccc(S(=O)(=O)N2CCC(C(=O)NCC3CCN(c4nc5cc(Cl)ccc5o4)CC3)C2)cc1 (stereo not drawn) [Example 14, N-[[1-(5-chloro-1,3-benzoxazol-2-yl)-4-piperidyl]methyl]-1-(p-tolylsulfonyl)pyrrolidine-3-carboxamide] | 4.16 | 3.82 | > 10
O=C(NC1CCC2(CC1)CCN(c1nc3cc(Cl)ccc3o1)CC2)c1ccc(S(=O)(=O)C2CC2)o1 [Example 122, N-[3-(5-chloro-1,3-benzoxazol-2-yl)-3-azaspiro[5.5]undecan-9-yl]-5-cyclopropylsulfonyl-furan-2-carboxamide] | 0.473 | 0.384 | > 100
CC1(NC(=O)c2ccnc(C(F)(F)F)c2)CC2(CN(c3nc4cc(Cl)ccc4o3)C2)C1 [Example 68, N-[2-(5-chloro-1,3-benzoxazol-2-yl)-6-methyl-2-azaspiro[3.3]heptan-6-yl]-2-(trifluoromethyl)pyridine-4-carboxamide] | 4.69 | 4.35 | 86.9
C[S@@](=N)(=O)c1ccc(C(=O)NC2CC3(C2)CN(c2nc4cc(Cl)ccc4o2)C3)o1 [Example 63, N-[2-(5-chloro-1,3-benzoxazol-2-yl)-2-azaspiro[3.3]heptan-6-yl]-5-[(R)-methylsulfonimidoyl]furan-2-carboxamide] | 1.42 | 2.47 | > 100
CC1(C(=O)NC2CCC3(CC2)CCN(c2nc4cc(Cl)ccc4o2)CC3)CC[S+]([O-])CC1 (stereo not drawn) [Example 98, N-[3-(5-chloro-1,3-benzoxazol-2-yl)-3-azaspiro[5.5]undecan-9-yl]-4-methyl-1-oxo-thiane-4-carboxamide] | 2.23 | 4.23 | > 100
O=C(NC1CCC2(CC1)CCN(c1nc3cc(Cl)ccc3o1)CC2)C1CCCS(=O)(=O)C1 (stereo not drawn) [Example 100, N-[3-(5-chloro-1,3-benzoxazol-2-yl)-3-azaspiro[5.5]undecan-9-yl]-1,1-dioxo-thiane-3-carboxamide] | 1.72 | 2.44 | > 100
O=C(CC1CS(=O)(=O)C1)NC1CC2(C1)CN(c1nc3cc(Cl)ccc3o1)C2 (stereo not drawn) [Example 35, N-[2-(5-chloro-1,3-benzoxazol-2-yl)-2-azaspiro[3.3]heptan-6-yl]-2-(1,1-dioxothietan-3-yl)acetamide] | 2.22 | 2.36 | > 100
CC(C)CS(=N)(=O)c1ccc(C(=O)NC2CC3(C2)CN(c2nc4cc(Cl)ccc4o2)C3)o1 (stereo not drawn) [Example 50, N-[2-(5-chloro-1,3-benzoxazol-2-yl)-2-azaspiro[3.3]heptan-6-yl]-5-(isobutylsulfonimidoyl)furan-2-carboxamide] | 1.49 | 1.66 | 95.4
O=C(NC1CC2(CCN(c3nc4cc(Cl)ccc4o3)CC2)C1)c1ccc(C(F)(F)F)o1 [Example 77, N-[7-(5-chloro-1,3-benzoxazol-2-yl)-7-azaspiro[3.5]nonan-2-yl]-5-(trifluoromethyl)furan-2-carboxamide] | 2.98 | 5.04 | > 100
O=C(NC1CCC2(CC1)CCN(c1nc3cc(Cl)ccc3o1)CC2)C1CCS(=O)(=O)C1 (stereo not drawn) [Example 90, N-[3-(5-chloro-1,3-benzoxazol-2-yl)-3-azaspiro[5.5]undecan-9-yl]-1,1-dioxo-thiolane-3-carboxamide] | 1.08 | 1.35 | 73.9
COc1ccc(C(=O)NC2CC3(C2)CN(c2nc4cc(Cl)ccc4o2)C3)cn1 [Example 46, N-[2-(5-chloro-1,3-benzoxazol-2-yl)-2-azaspiro[3.3]heptan-6-yl]-6-methoxy-pyridine-3-carboxamide] | 2.86 | 4.74 | > 100
CS(=N)(=O)c1ccc(C(=O)NC2CCC3(CC2)CCN(c2nc4cc(Cl)ccc4o2)CC3)o1 (stereo not drawn) [Example 109, N-[3-(5-chloro-1,3-benzoxazol-2-yl)-3-azaspiro[5.5]undecan-9-yl]-5-(methylsulfonimidoyl)furan-2-carboxamide] | 4.66 | 5.88 | > 100
CS(=O)(=O)Cc1ccc(C(=O)NC2CCC3(CC2)CCN(c2nc4cc(Cl)ccc4o2)CC3)o1 [Example 112, N-[3-(5-chloro-1,3-benzoxazol-2-yl)-3-azaspiro[5.5]undecan-9-yl]-5-(methylsulfonylmethyl)furan-2-carboxamide] | 4.24 | 3.68 | > 10
O=C(NC1CC2(CCN(c3nc4ccc(Cl)cc4o3)C2)C1)C1CCS(=O)(=O)C1 (stereo not drawn) [Example 73, N-[6-(6-chloro-1,3-benzoxazol-2-yl)-6-azaspiro[3.4]octan-2-yl]-1,1-dioxo-thiolane-3-carboxamide] | 3.05 | 6.32 | > 100
O=C(NC1CCC2(CC1)CCN(c1nc3cc(Cl)ccc3o1)CC2)c1ccc(S(=O)(=O)CC2CC2)o1 [Example 121, N-[3-(5-chloro-1,3-benzoxazol-2-yl)-3-azaspiro[5.5]undecan-9-yl]-5-(cyclopropylmethylsulfonyl)furan-2-carboxamide] | 1.16 | 1.54 | > 100
CC(C)CC(=O)NC1CC2(C1)CN(c1nc3cc(Cl)ccc3o1)C2 [Example 28, N-[2-(5-chloro-1,3-benzoxazol-2-yl)-2-azaspiro[3.3]heptan-6-yl]-3-methyl-butanamide] | 2.18 | 3.31 | 76.6
CS(=O)(=O)N1CCC(CC(=O)NCC2CCN(c3nc4cc(Cl)ccc4o3)CC2)CC1 [Example 19, N-[[1-(5-chloro-1,3-benzoxazol-2-yl)-4-piperidyl]methyl]-2-(1-methylsulfonyl-4-piperidyl)acetamide] | 3.75 | 7.74 | > 10
CCOc1cc(C(=O)NC2CC3(C2)CN(c2nc4cc(Cl)ccc4o2)C3)ccn1 [Example 49, N-[2-(5-chloro-1,3-benzoxazol-2-yl)-2-azaspiro[3.3]heptan-6-yl]-2-ethoxy-pyridine-4-carboxamide] | 1.7 | 3.1 | > 100
CN(C)C(=O)NC1CC2(C1)CN(c1nc3cc(Cl)ccc3o1)C2 [Example 23, 3-[2-(5-Chloro-1,3-benzoxazol-2-yl)-2-azaspiro[3.3]heptan-6-yl]-1,1-dimethyl-urea] | 6.62 | 7.63 | > 100
O=C(NC1CC2CN(c3nc4cc(Cl)ccc4o3)CC2C1)C1CCS(=O)(=O)C1 (stereo not drawn) [Example 124, N-[2-(5-chloro-1,3-benzoxazol-2-yl)-3,3a,4,5,6,6a-hexahydro-1H-cyclopenta[c]pyrrol-5-yl]-1,1-dioxo-thiolane-3-carboxamide] | 13 | 6.59 | > 100
O=C(NC1CCC2(CC1)CCN(c1nc3cc(Cl)ccc3o1)CC2)c1ccc(C(F)(F)F)o1 [Example 115, N-[3-(5-chloro-1,3-benzoxazol-2-yl)-3-azaspiro[5.5]undecan-9-yl]-5-(trifluoromethyl)furan-2-carboxamide] | 2.64 | 2.92 | > 100
